Test results as given in EPA's CvTdb concentration-time database.

Columns and labels:
Assay in all cases: concentration in plasma after dosing
Rat [1] = settings: dosed: 4-methylimidazole, 10 mg/kg, iv, Male, Harlan Sprague Dawley
Rat [2] = settings: dosed: 4-methylimidazole, 10 mg/kg, iv, Male, Harlan Sprague Dawley; remark: listed apart in the source
Rat [3] = settings: dosed: 4-methylimidazole, 10 mg/kg, iv, Male, Harlan Sprague Dawley; remark: listed apart in the source
Rat [4] = settings: dosed: 4-methylimidazole, 10 mg/kg, iv, Male, Harlan Sprague Dawley; remark: listed apart in the source
Rat [5] = settings: dosed: 4-methylimidazole, 10 mg/kg, iv, Male, Harlan Sprague Dawley; remark: listed apart in the source
Rat [6] = settings: dosed: 4-methylimidazole, 10 mg/kg, iv, Female, Harlan Sprague Dawley
Rat [7] = settings: 0.75 h; dosed: 4-methylimidazole; 10 mg/kg; iv; Male; Harlan Sprague Dawley
Rat [8] = settings: 0.5 h; dosed: 4-methylimidazole; 10 mg/kg; iv; Male; Harlan Sprague Dawley
Rat [9] = settings: 0.5 h; dosed: 4-methylimidazole; 10 mg/kg; iv; Male; Harlan Sprague Dawley; remark: listed apart in the source
Rat [10] = settings: dosed: 4-methylimidazole, 10 mg/kg, iv, Male, Harlan Sprague Dawley; remark: listed apart in the source
Rat [11] = settings: 0.75 h; dosed: 4-methylimidazole; 10 mg/kg; iv; Male; Harlan Sprague Dawley; remark: listed apart in the source
Rat [12] = settings: dosed: 4-methylimidazole, 10 mg/kg, iv, Male, Harlan Sprague Dawley; remark: listed apart in the source
Rat [13] = settings: dosed: 4-methylimidazole, 10 mg/kg, iv, Male, Harlan Sprague Dawley; remark: listed apart in the source
Rat [14] = settings: dosed: 4-methylimidazole, 10 mg/kg, iv, Male, Harlan Sprague Dawley; remark: listed apart in the source
Rat [15] = settings: dosed: 4-methylimidazole, 10 mg/kg, iv, Male, Harlan Sprague Dawley; remark: listed apart in the source
Rat [16] = settings: dosed: 4-methylimidazole, 10 mg/kg, iv, Male, Harlan Sprague Dawley; remark: listed apart in the source
Rat [17] = settings: dosed: 4-methylimidazole, 10 mg/kg, iv, Male, Harlan Sprague Dawley; remark: listed apart in the source
Rat [18] = settings: dosed: 4-methylimidazole, 10 mg/kg, iv, Male, Harlan Sprague Dawley; remark: listed apart in the source
Rat [19] = settings: dosed: 4-methylimidazole, 10 mg/kg, iv, Male, Harlan Sprague Dawley; remark: listed apart in the source
Rat [20] = settings: dosed: 4-methylimidazole, 10 mg/kg, iv, Harlan Sprague Dawley
Rat [21] = settings: dosed: 4-methylimidazole, 10 mg/kg, iv, Male, Harlan Sprague Dawley; remark: listed apart in the source
Rat [22] = settings: dosed: 4-methylimidazole, 10 mg/kg, iv, Male, Harlan Sprague Dawley; remark: listed apart in the source
Rat [23] = settings: dosed: 4-methylimidazole, 10 mg/kg, iv, Male, Harlan Sprague Dawley; remark: listed apart in the source
Rat [24] = settings: dosed: 4-methylimidazole, 10 mg/kg, iv, Female, Harlan Sprague Dawley; remark: listed apart in the source
Rat [25] = settings: dosed: 4-methylimidazole, 10 mg/kg, iv, Male, Harlan Sprague Dawley; remark: listed apart in the source
Rat [26] = settings: dosed: 4-methylimidazole, 10 mg/kg, iv, Male, Harlan Sprague Dawley; remark: listed apart in the source
Rat [27] = settings: dosed: 4-methylimidazole, 10 mg/kg, iv, Male, Harlan Sprague Dawley; remark: listed apart in the source
Rat [28] = settings: dosed: 4-methylimidazole, 10 mg/kg, iv, Male, Harlan Sprague Dawley; remark: listed apart in the source
Rat [29] = settings: dosed: 4-methylimidazole, 10 mg/kg, iv, Male, Harlan Sprague Dawley; remark: listed apart in the source

## Cc1cnc[nH]1 [4-methylimidazole]
Rat [1]; 10 min
  concentration in plasma: 7840 ng/mL
Rat [1]; 4 h
  concentration in plasma: 1490 ng/mL
Rat [2]; 7 min
  concentration in plasma: 8150 ng/mL
Rat [2]; 2 h
  concentration in plasma: 2740 ng/mL
Rat [3]; 10 min
  concentration in plasma: 8520 ng/mL
Rat [3]; 4 h
  concentration in plasma: 611 ng/mL
Rat [4]; 20 min
  concentration in plasma: 6930 ng/mL
Rat [4]; 4 h
  concentration in plasma: 647 ng/mL
Rat [5]; 20 min
  concentration in plasma: 6950 ng/mL
Rat [5]; 6 h
  concentration in plasma: 148 ng/mL
Rat [6]; 2 min
  concentration in plasma: 12000 ng/mL
Rat [6]; 1 h
  concentration in plasma: 5190 ng/mL
Rat [7]
  concentration in plasma: 6160 ng/mL
Rat [8]
  concentration in plasma: 5770 ng/mL
Rat [9]
  concentration in plasma: 5420 ng/mL
Rat [10]; 2 min
  concentration in plasma: 10200 ng/mL
Rat [10]; 1 h
  concentration in plasma: 4070 ng/mL
Rat [11]
  concentration in plasma: 5440 ng/mL
Rat [12]; 0.5 h
  concentration in plasma: 5280 ng/mL
Rat [12]; 6 h
  concentration in plasma: 108 ng/mL
Rat [13]; 20 min
  concentration in plasma: 5890 ng/mL
Rat [13]; 4 h
  concentration in plasma: 960 ng/mL
Rat [14]; 2 min
  concentration in plasma: 12200 ng/mL
Rat [14]; 1 h
  concentration in plasma: 4610 ng/mL
Rat [15]; 0.75 h
  concentration in plasma: 3040 ng/mL
Rat [15]; 8 h
  concentration in plasma: 656 ng/mL
Rat [16]; 2 min
  concentration in plasma: 11800 ng/mL
Rat [16]; 0.75 h
  concentration in plasma: 4780 ng/mL
Rat [17]; 10 min
  concentration in plasma: 7910 ng/mL
Rat [17]; 4 h
  concentration in plasma: 1720 ng/mL
Rat [18]; 0.5 h
  concentration in plasma: 5620 ng/mL
Rat [18]; 6 h
  concentration in plasma: 162 ng/mL
Rat [19]; 7 min
  concentration in plasma: 8240 ng/mL
Rat [19]; 2 h
  concentration in plasma: 3340 ng/mL
Rat [20]; 2 min, Male
  concentration in plasma: 9350 ng/mL
Rat [20]; 7 min, Female
  concentration in plasma: 8000 ng/mL
Rat [20]; 7 min, Male
  concentration in plasma: 9000 ng/mL
Rat [20]; 10 min, Male
  concentration in plasma: 8770 ng/mL
Rat [20]; 20 min, Male
  concentration in plasma: 6950 ng/mL
Rat [20]; 0.5 h, Male
  concentration in plasma: 7300 ng/mL
Rat [20]; 0.75 h, Male
  concentration in plasma: 6210 ng/mL
Rat [20]; 1 h, Female
  concentration in plasma: 4810 ng/mL
Rat [20]; 2 h, Male
  concentration in plasma: 2060 ng/mL
Rat [20]; 4 h, Male
  concentration in plasma: 690 ng/mL
Rat [20]; 6 h, Male
  concentration in plasma: 454 ng/mL
Rat [20]; 8 h, Male
  concentration in plasma: 205 ng/mL
Rat [21]; 10 min
  concentration in plasma: 7010 ng/mL
Rat [21]; 2 h
  concentration in plasma: 2460 ng/mL
Rat [22]; 20 min
  concentration in plasma: 7340 ng/mL
Rat [22]; 6 h
  concentration in plasma: 112 ng/mL
Rat [23]; 7 min
  concentration in plasma: 7090 ng/mL
Rat [23]; 1 h
  concentration in plasma: 4110 ng/mL
Rat [24]; 2 min
  concentration in plasma: 10500 ng/mL
Rat [24]; 1 h
  concentration in plasma: 6380 ng/mL
Rat [25]; 7 min
  concentration in plasma: 8840 ng/mL
Rat [25]; 2 h
  concentration in plasma: 2740 ng/mL
Rat [26]; 0.75 h
  concentration in plasma: 5620 ng/mL
Rat [26]; 8 h
  concentration in plasma: 74.3 ng/mL
Rat [27]; 20 min
  concentration in plasma: 6840 ng/mL
Rat [27]; 6 h
  concentration in plasma: 116 ng/mL
Rat [28]; 10 min
  concentration in plasma: 6960 ng/mL
Rat [28]; 2 h
  concentration in plasma: 3520 ng/mL
Rat [29]; 0.5 h
  concentration in plasma: 5440 ng/mL
Rat [29]; 8 h
  concentration in plasma: 88.2 ng/mL
